Entries after “also recorded” stand apart in the source; their conditions may differ.
Columns and labels:
α3β4 nAChR [1] = target: T1, α3β4 nAChR (Homo sapiens, UniProt P30926+P32297); test: Radioligand displacement binding assay
Procedure: All binding and functional assays for molecular target characterization were conducted by Eurofins Cerep SA (Celle-Lévescault, France) and Eurofins Panlabs Discovery Services Taiwan, Ltd. (New Taipei City, Taiwan) using their standard in vitro binding and functional assays (Supplementary Material S2). […] Negative values were considered to be an artifact arising from, for example, compounds interfering with the assay readout.
The radioligand displacement binding assays employed the gold standard filtration method using membrane preparations from stable cell lines (HEK-293 or CHO cells) expressing human or rodent target proteins to determine the interaction of the compounds with specific receptors, channels, and transporters. For this purpose, the competitive binding of test compounds against a [^125I]- [^3H]-, or [^35S]-labelled agonist and/or antagonist was determined. The specific list of radiolabeled ligands and experimental conditions are summarized in Supplementary Material S2.

α3β4 nAChR [2] = target: T1, α3β4 nAChR; test: nAChR functional assay, automated patch-clamp; assay type: cell-based
Procedure: The following selection antibiotics were used for the cell lines: G418 (0.25 mg/ml; Sigma-Aldrich) and Zeocin^TM (0.4 mg/ml; InvivoGen, San Diego, CA, United States) for α7/Ric3 nAChR and α3β4 nAChR cells; puromycin (8 μg/ml; InvivoGen) and hygromycin B (0.4 mg/ml; Gibco) for α4β2 nAChR cells; and G418 (0.5 mg/ml), puromycin (0.25 μg/ml), and hygromycin B (0.02 mg/ml) for α6/3β2/β3 nAChR cells. […] The human nAChRs were selected due to the lack of commercially available nAChR expression systems for mouse or zebrafish.
Data were analyzed using the Patchmaster software and corrected for leak current. The data acceptance criteria were as follows: seal resistance >100 MΩ; seal resistance loss variation <50%; access resistance <20 MΩ; and minimum current amplitude elicited by maximal effect concentration acetylcholine >50 pA. Offline data analysis was performed in OpenOffice™ (v4.1.2; The Apache Software Foundation, Wakefield, MA, United States). […] Igor Pro (v6.2.2.2; WaveMetrics, Lake Oswego, OR, United States) or Prism (v8.2.1) were used for assessing the concentration–response curves.

α7 nAChR = α7 nAChR (Homo sapiens, UniProt P36544); test: Radioligand displacement binding assay
α7 nAChR, sequence (P36544 23-502): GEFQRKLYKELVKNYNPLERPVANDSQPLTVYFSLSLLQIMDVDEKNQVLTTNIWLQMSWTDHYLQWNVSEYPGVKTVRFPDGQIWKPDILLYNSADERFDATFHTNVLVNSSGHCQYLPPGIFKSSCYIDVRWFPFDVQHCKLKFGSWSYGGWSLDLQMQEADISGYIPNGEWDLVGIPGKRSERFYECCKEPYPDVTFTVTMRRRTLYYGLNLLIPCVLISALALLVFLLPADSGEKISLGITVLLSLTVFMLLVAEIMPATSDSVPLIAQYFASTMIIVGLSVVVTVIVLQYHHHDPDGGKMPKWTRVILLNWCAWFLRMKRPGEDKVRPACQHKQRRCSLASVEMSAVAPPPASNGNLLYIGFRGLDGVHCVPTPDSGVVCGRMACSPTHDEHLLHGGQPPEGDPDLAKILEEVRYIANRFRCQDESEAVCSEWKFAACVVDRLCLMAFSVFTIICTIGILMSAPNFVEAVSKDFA
Procedure: Assay Source Ligand Conc. Kd Non Specific Incubation Detection Bibl.
N neuronal α7 (h) SH-SY5Y cells [125I]α-bungarotoxin 0.05 nM 0.34 nM α-bungarotoxin 120 min Scintillation 347
(antagonist radioligand) (human (1 µM) 37°C counting

[3] = test system: norepinephrine release from hippocampal synaptosomes; test: In vitro [3H]norepinephrine release from crude hippocampal synaptosomes; assay type: biochemical, rat
Procedure: In vitro neurotransmitter assays using crude synaptosome preparations were conducted by Gifford Biosciences Limited (Birmingham, UK) based on the previously described protocols ([Clarke and Reuben, 1996]; [Gifford et al., 2000]). In brief, male Sprague Dawley rats (200–225 g) were terminated by cervical dislocation followed by decapitation. The striatums or hippocampi were dissected and homogenized in ice-cold 0.32 M sucrose using a Dounce homogenizer. The homogenates were centrifuged at 100 x g for 5 min to pellet cell debris. The supernatants were collected and centrifuged at 17,000 x g for 10 min at 4°C to pellet crude synaptosomes. The pellets were resuspended in 5 ml Krebs buffer, pH 7.4 (in mM (pH 7.4): 120 NaCl, 3.3 KCl, 1.2 MgSO4, 1.3 CaCl2, 1.2 K2HPO4, 25 HEPES, 11 glucose, 0.01 ascorbic acid, 0.025 pargyline, and 0.1% BSA containing 2 μCi/ml [^3H]norepinephrine for hippocampal synaptosomes or 1 μCi/ml [^3H]dopamine for striatal synaptosomes and incubated for 15 min at 35°C with gentle shaking.
The [^3H]norepinephrine- or [^3H]dopamine-treated crude synaptosomes were loaded onto closed filter chambers containing Whatman® Grade GF/C Glass Microfiber filters (Sigma-Aldrich, Merck KGaA, Darmstadt, Germany) and placed in a superfusion system. Preoxygenated Krebs buffer was perfused through the chambers at a rate of 1 ml/min at 37 °C using an 8-channel peristaltic pump. To ensure an even flow over the synaptosomal bed, trapped air bubbles were removed from the filters prior to collection of the fractions. After a superfusion period of 40 min, three basal fractions (1.5 ml/fraction) were collected first, followed by three fractions (1.5 ml/fraction) containing the test compound. Two additional fractions were collected in the presence of 30 mM KCl to depolarize the synaptosomes. A 0.4-ml aliquot of each fraction was then transferred to a counting plate, and a scintillation cocktail was added to measure the radioactivity using a Wallac® TriLux 1450 MicroBeta counter (PerkinElmer Life Sciences, Zaventem, Belgium). Once all fractions were collected, the filters holding the crude synaptosome samples were removed and dried overnight at room temperature. On the following day, the scintillation cocktail was added and the filters were counted to determine residual radioactivity.
Compound-evoked release of neurotransmitters was calculated by subtracting the counts per minute (CPM) in the two basal fractions collected immediately prior to compound addition from those in the two fractions collected immediately following compound addition. The compound-evoked release was then expressed as a percentage of the basal release from that chamber. Potassium-evoked release was calculated by subtracting the CPM in the fraction immediately prior to KCl addition from the CPM in the […] immediately following potassium addition. Stimulated release was calculated as the percentage of basal release for that chamber. The increase in stimulated release above the baseline (no compound) release for that experimental run was determined, and the latter values were plotted on the graphs. Dose–response curves were determined using non-linear curve fitting in Prism (GraphPad Software, Inc, San Diego, CA, United States). All experiments were repeated at least three times.

[4] = mean ± S.D., no effect = up to 33 μM

T1 sequence (P32297 32-505): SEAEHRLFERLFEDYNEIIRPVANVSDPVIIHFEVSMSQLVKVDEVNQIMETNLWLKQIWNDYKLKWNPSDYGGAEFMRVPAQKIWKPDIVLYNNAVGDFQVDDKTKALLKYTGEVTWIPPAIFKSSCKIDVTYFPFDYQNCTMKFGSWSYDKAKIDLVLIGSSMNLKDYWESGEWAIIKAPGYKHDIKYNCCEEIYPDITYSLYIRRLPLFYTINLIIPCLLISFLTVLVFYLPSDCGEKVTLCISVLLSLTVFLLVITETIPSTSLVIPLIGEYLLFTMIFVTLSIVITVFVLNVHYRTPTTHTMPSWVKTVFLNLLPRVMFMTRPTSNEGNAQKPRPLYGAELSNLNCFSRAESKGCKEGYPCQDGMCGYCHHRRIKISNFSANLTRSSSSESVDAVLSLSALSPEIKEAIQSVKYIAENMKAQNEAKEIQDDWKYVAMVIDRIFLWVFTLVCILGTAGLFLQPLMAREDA
T1 sequence (P30926 22-498): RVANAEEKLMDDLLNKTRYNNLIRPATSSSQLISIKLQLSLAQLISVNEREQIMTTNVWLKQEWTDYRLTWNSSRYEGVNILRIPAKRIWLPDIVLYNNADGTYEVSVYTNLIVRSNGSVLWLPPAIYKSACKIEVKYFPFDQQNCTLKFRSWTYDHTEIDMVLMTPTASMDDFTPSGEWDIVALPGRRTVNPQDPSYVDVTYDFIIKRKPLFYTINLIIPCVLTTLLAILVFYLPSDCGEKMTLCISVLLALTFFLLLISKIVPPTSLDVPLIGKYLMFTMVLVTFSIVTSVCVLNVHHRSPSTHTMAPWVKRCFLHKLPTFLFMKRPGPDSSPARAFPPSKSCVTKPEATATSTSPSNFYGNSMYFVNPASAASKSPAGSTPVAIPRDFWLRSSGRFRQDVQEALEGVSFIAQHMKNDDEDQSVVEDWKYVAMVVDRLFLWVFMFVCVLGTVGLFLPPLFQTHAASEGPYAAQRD

SMILES: CN1C(=O)CC[C@H]1c1cccnc1 [Cotinine, (-)-cotinine]
- binding for α3β4 nAChR (α3β4 nAChR [1]): undetectable
- α3β4 nAChR EC50 in µM (α3β4 nAChR [2]; [4]): no detectable activities; also recorded: No effect *
- binding for α7 nAChR (α7 nAChR): undetectable

SMILES: C1=CCC(c2cccnc2)NC1 (racemic) [Anatabine, (±)-Anatabine]
- increase in norepinephrine release ([3]; at the higher doses): ~20%
- IC50 (α3β4 nAChR [1]): 0.96 ± 0.2 µM
- EC50 (α3β4 nAChR [2]; [4]): 70.6 ± 8.2 µM
- % of the full receptor activity, α3β4 nAChR (α3β4 nAChR [2]; preliminary, data not shown): ~40%

SMILES: CN1CCC[C@H]1c1cccnc1 [Nicotine, (-)-Nicotine]
- EC50 ([3]; hippocampal synaptosomes): 4.22 µM

From paper PMC8980233, “Differentiating the Neuropharmacological Properties of Nicotinic Acetylcholine Receptor-Activating Alkaloids” (Frontiers in Pharmacology, 2022)
